Reference: article PMC9144480 (Pharmaceuticals, 2022)
“Also recorded” adds a separate entry of the source. Like-named read-outs stand apart in the source and are kept apart here.

Assays:
[1] = system: pseudovirus bearing SARS-CoV-2 S protein (original strain); assay: microbe, parasite or virus in culture; type: cell-based
[2] = system: VSV-SARS-CoV-2-Sdel18 pseudovirus; settings: Vero E6; ref [40]; read-out: IC50, VSV-SARS-CoV-2-Sdel18 pseudovirus entry; cited from earlier work
[3] = system: SARS-CoV-2 (B.1.5); assay: microbe, parasite or virus in culture; type: cell-based; settings: Severe acute respiratory syndrome coronavirus 2, Vero C1008, 48 h, read-out: IC50, inhibition of SARS-CoV-2 replication
[4] = cited from earlier work
[5] = system: COVID-19; settings: cited from earlier work
[6] = target: hACE2 (Homo sapiens, UniProt Q9BYF1); assay: Surface plasmon resonance (single-cycle kinetics) binding to hACE2; settings: data not shown
Sequence of hACE2 (Q9BYF1 18-805): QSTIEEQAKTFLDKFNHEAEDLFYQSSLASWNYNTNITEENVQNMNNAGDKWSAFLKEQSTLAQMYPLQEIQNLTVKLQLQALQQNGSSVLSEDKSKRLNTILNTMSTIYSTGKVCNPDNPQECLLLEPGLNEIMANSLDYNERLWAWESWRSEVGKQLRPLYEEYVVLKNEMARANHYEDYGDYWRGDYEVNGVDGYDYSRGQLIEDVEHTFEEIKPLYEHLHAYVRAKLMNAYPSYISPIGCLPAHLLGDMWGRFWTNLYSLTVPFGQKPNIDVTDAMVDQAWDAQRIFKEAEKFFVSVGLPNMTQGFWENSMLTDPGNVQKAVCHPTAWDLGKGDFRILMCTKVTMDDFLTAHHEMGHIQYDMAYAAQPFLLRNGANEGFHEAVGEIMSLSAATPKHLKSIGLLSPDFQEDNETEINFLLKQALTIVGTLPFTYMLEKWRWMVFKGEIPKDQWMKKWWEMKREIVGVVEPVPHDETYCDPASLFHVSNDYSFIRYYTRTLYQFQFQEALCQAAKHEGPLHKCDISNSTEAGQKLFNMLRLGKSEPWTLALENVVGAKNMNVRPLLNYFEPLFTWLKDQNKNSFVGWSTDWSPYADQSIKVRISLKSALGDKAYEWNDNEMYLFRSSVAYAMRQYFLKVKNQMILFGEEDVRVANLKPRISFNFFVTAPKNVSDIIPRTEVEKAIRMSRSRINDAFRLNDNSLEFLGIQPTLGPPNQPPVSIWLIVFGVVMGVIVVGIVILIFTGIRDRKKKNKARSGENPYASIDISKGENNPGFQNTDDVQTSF

[7] = system: hCoV-229E; settings: read-out: IC50, image-based multicycle replication assay; Huh7; ref [41]; cited from earlier work
[8] = system: SARS-CoV-2; settings: read-out: IC50, concentration levels that seem to provide antiviral activity; overall range over this work and published studies; ref Table 1; cited from earlier work
[9] = system: CD40–CD154 PPI; settings: ref [23]; cited from earlier work
[10] = system: HEK293T cells; assay: Cytotoxicity, MTT assay; type: cell-based, human; settings: 48 h with MeBlu + 48 h culture
Experimental: For the MTT assay, HEK293T cells were seeded onto 96 wells with the density of 5.0 × 10^4 cells per well. […] After that, cells were incubated with MTT reagent at 37 °C for 2 h. The medium was removed, and dimethyl sulfoxide was added. Cell viability was evaluated using a microplate reader at 570 nm absorbance (SpectraMax iD3, Molecular DEVICES, San Jose, CA, USA).

[11] = target: T1, HCV E–CD81 PPI (UniProt P27958+P60033); assay: biochemical; type: binding
T1 construct: hepatitis C virus envelope glycoprotein E with CD81; purchased R&D Systems 9146-HC; 9144-CD
T1 sequence (P60033 113-201): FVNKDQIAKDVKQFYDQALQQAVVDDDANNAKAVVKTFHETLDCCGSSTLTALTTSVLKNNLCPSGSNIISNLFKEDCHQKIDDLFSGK
T1 sequence (P27958 384-746): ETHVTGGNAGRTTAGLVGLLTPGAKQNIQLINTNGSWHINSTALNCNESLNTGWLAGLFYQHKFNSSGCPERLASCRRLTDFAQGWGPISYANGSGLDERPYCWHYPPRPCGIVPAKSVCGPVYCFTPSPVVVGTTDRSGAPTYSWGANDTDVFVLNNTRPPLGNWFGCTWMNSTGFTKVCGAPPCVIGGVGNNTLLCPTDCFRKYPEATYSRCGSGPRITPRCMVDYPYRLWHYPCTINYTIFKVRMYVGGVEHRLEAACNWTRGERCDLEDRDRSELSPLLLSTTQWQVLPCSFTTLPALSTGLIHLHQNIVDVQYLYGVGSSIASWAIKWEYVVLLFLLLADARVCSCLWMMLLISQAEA

[12] = system: COVID-19; settings: human, in vivo, iv, 1 mg/kg; cited from earlier work
[13] = system: influenza virus H1N1; settings: ref [36]; cited from earlier work
[14] = target: T2, SARS-CoV-2 spike RBD (Severe acute respiratory syndrome coronavirus 2, UniProt P0DTC2); assay: Surface plasmon resonance binding to spike RBD; settings: single and multicycle kinetics; qualitative, not 1:1 binding
T2 construct: SARS-CoV-2 spike RBD (His-tagged, Arg319-Ph541); RayBiotech; His tag; purchased RayBiotech
Experimental: SPR was performed at Reaction Biology (Malvern, PA, USA) using single and multicycle kinetics to assess the binding to the SARS-CoV-2 spike RBD (His-tagged, Arg319-Ph541; RayBiotech; Peachtree Corners, GA, USA) and determine the kinetics/affinity. Measurements were performed on a Biacore 8K (Cytiva) with a series S CM5 (Cytiva) sensor chip. Spike RBD was immobilized via amine coupling at pH 5.5 to immobilization levels of ~1500–2300 RU (single-cycle) and ~2500 RU (multi-cycle). A running buffer of PBS-p+ (20 mM phosphate buffer with 2.7 mM KCl, 137 mM NaCl, and 0.05% surfactant Tween20) with 1% DMSO was used. All data was solvent corrected, reference subtracted, and blank subtracted using the Biacore Insight Evaluation Software. To try and obtain kinetic/affinity parameters, the data was evaluated using a 1:1 kinetic binding model. However, the binding behavior appears to be more complex than can be approximated using a 1:1 binding model, which prevents a quantitative analysis of the SPR binding data.

[15] = system: COVID-19; settings: cited from earlier work; remark: listed apart in the source
[16] = target: T3, HCoV-NL63 S1–hACE2 PPI (Homo sapiens, UniProt Q9BYF1); assay: biochemical; type: binding
T3 construct: HCoV-NL63 S1 (His tag, 40600-V08H); purchased Sino Biological 40600-V08H; 10108-H05H
T3 sequence (Q9BYF1 18-740): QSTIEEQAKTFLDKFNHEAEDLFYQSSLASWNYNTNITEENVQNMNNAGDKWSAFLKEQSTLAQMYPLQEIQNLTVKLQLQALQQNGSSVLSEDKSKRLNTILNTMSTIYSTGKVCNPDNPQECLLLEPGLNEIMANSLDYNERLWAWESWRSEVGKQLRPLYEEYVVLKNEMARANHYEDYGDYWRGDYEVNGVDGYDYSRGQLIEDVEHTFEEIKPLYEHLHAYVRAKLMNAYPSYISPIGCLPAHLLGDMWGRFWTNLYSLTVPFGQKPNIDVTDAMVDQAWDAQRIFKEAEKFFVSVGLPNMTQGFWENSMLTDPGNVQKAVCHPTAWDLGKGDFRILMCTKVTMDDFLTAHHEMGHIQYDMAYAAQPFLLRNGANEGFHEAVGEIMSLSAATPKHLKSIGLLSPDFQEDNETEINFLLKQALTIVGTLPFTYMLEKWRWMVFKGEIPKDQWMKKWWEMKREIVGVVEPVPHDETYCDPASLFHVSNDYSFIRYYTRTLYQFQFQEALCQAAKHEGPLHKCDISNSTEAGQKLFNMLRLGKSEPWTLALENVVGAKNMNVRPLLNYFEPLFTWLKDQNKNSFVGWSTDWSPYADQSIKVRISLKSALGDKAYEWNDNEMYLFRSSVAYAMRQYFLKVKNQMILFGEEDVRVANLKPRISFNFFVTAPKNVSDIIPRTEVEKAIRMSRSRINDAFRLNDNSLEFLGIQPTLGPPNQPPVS

[17] = system: SARS-CoV-2 pseudovirus; assay: microbe, parasite or virus in culture; settings: Severe acute respiratory syndrome-related coronavirus, HEK-293T, read-out: IC50, SARS-CoV-2 pseudovirus cell entry
[18] = system: influenza-like illness during COVID-19 pandemic; settings: 2500 patients, MeBlu 75 mg t.i.d., March 2020; ref [49]; cited from earlier work
[19] = ref [19],[21],[22]; cited from earlier work
[20] = system: SARS-CoV-2; settings: cited from earlier work
[21] = system: SARS-CoV-2; settings: read-out: IC50, SARS-CoV-2 antiviral activity; Vero E6; ref [36]; cited from earlier work
[22] = system: TNF-R1−TNFα PPI; settings: ref [23]; cited from earlier work
[23] = target: T4, IL-2–IL-2Rα PPI (Homo sapiens, UniProt P01589+P60568); assay: biochemical; type: binding
T4 construct: purchased ACROBiosystems IL2-H52H8; ILA-H5251
T4 sequence (P01589 22-213): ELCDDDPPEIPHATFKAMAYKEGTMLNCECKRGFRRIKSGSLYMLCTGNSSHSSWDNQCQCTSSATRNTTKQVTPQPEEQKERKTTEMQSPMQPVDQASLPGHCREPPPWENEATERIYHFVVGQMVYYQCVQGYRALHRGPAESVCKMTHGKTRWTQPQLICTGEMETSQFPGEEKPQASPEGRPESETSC
T4 sequence (P60568 21-153): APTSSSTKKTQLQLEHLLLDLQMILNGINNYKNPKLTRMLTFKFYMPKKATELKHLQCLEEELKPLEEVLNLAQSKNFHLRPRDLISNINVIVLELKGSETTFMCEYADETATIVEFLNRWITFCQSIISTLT

[24] = Pseudovirus, HEK-293T, read-out: IC50, inhibition of cell entry of pseudovirus

O=S(=O)(O)c1ccc(N=Nc2c(O)ccc3cc(S(=O)(=O)O)ccc23)cc1 [SY(FD&C#6), sunset yellow FCF]
IC50 [1, 24]: > 500000 nM

Nc1c(/N=N/c2ccc([N+](=O)[O-])cc2)c(S(=O)(=O)O)cc2cc(S(=O)(=O)O)c(/N=N/c3ccccc3)c(O)c12 [NBlBk, naphthol blue black]
IC50 [1, 24]: > 500000 nM

CN(C)c1ccc2nc3ccc(=[N+](C)C)cc-3sc2c1 [MeBlu, methylene blue]
IC50 [2]: 9000 nM
trough levels ([4]; 207 mg/day (69 mg, t.i.d., p.o.), ref [43]): 6 to 7 µM
oral bioavailability (F) ([4]; ref [42]): ≈ 80%
terminal elimination half-life (t1/2) ([4]; ref [42]): ≈ 14 h
hospital stays ([5]; nebulized MeBlu, observational study, 63 patients, vs. 12, ref [55]): 9.17 days
SPR binding to hACE2 [6]: low micromolar range
IC50 [7]: 1400 nM
inhibition of CD40–CD154 (CD40L) PPI [9]: inhibited; also recorded: low micromolar
TC50, cell viability (MTT) [10]: 57900 nM
IC50 ([1]; Pseudovirus, HEK-293T, read-out: IC50, inhibition of cell entry of pseudovirus, BacMam pseudovirus, original strain, HEK293T): 3600 nM
IC50 ([1]; read-out: IC50, inhibition of cell entry of pseudovirus, BacMam pseudovirus, original strain, HEK293T): 3640 nM
IC50 [11]: 800 nM
side effects or adverse events [12]: no major side effects or adverse events
activity against influenza virus H1N1 [13]: Also active against influenza virus H1N1
SPR binding to SARS-CoV-2 spike RBD [14]: low‐micromolar binding; also recorded: low micromolar range
treated patients who responded well to the treatment ([15]; Phase 1, MeBlu 1 mg/kg with vitamin C and N-acetyl cysteine, critically ill, ref [50]): four of the five
hospital stays ([15]; Phase 2, vs. 11.7 ± 6.6 without MeBlu, p = 0.004, ref [51]): 7.3 ± 4.7 days
mortality ([15]; Phase 2, vs. 22.5% without MeBlu, ref [51]): 12.5%
hospital stays ([15]; Phase 3, oral MeBlu added to standard care, 223 patients, vs. 10.6 ± 9.2, p < 0.001, ref [52]): 6.2 ± 3.1
mortality ([15]; Phase 3, vs. 21.4%, p = 0.07, ref [52]): 12.2%
IC50 [16]: 1930 nM
IC50 [17]: 3000 to 5000 nM
patients who developed influenza-like illness [18]: none
dose above which undesired side effects (nausea, vomiting, hemolysis) are increasingly common [19]: higher than 7 mg/kg
inhibition of TNF-R1–TNFα PPI [22]: inhibited; also recorded: low micromolar
IC50 [23]: 370 nM

CCN(CCO)CCCC(C)Nc1ccnc2cc(Cl)ccc12 (stereo not drawn) [HCQ, hydroxychloroquine]
IC50 [1, 24]: > 500000 nM
